In US8962641B2, “Pyrimidine-substituted pyrrolidine derivatives, pharmaceutical compositions and uses thereof” (Boehringer Ingelheim International GmbH, priority 2013, dated 2015):

Target: human ACC2 (Homo sapiens (Human), UniProt O00763)
Assay: ACC2 assay (spectrophotometric 384 well assay, NADH-linked kinetic method)
Format: biochemical
Conditions: hACC2 construct lacking 128 N-terminal amino acids; coupled lactate dehydrogenase/pyruvate kinase reaction, 340 nm, 25° C.
Summary of the method: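 Baculovirus/insect-cell human ACC2, anion-exchange purified; ADP formation coupled to pyruvate kinase/lactate dehydrogenase, NADH loss followed at 340 nm, 25° C, 15 min. Final 200 μM NADH and acetyl-CoA, 500 uM ATP; vehicle and no-acetyl-CoA wells set 100% and 0%.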

Chain of human ACC2 (O00763 129-2458): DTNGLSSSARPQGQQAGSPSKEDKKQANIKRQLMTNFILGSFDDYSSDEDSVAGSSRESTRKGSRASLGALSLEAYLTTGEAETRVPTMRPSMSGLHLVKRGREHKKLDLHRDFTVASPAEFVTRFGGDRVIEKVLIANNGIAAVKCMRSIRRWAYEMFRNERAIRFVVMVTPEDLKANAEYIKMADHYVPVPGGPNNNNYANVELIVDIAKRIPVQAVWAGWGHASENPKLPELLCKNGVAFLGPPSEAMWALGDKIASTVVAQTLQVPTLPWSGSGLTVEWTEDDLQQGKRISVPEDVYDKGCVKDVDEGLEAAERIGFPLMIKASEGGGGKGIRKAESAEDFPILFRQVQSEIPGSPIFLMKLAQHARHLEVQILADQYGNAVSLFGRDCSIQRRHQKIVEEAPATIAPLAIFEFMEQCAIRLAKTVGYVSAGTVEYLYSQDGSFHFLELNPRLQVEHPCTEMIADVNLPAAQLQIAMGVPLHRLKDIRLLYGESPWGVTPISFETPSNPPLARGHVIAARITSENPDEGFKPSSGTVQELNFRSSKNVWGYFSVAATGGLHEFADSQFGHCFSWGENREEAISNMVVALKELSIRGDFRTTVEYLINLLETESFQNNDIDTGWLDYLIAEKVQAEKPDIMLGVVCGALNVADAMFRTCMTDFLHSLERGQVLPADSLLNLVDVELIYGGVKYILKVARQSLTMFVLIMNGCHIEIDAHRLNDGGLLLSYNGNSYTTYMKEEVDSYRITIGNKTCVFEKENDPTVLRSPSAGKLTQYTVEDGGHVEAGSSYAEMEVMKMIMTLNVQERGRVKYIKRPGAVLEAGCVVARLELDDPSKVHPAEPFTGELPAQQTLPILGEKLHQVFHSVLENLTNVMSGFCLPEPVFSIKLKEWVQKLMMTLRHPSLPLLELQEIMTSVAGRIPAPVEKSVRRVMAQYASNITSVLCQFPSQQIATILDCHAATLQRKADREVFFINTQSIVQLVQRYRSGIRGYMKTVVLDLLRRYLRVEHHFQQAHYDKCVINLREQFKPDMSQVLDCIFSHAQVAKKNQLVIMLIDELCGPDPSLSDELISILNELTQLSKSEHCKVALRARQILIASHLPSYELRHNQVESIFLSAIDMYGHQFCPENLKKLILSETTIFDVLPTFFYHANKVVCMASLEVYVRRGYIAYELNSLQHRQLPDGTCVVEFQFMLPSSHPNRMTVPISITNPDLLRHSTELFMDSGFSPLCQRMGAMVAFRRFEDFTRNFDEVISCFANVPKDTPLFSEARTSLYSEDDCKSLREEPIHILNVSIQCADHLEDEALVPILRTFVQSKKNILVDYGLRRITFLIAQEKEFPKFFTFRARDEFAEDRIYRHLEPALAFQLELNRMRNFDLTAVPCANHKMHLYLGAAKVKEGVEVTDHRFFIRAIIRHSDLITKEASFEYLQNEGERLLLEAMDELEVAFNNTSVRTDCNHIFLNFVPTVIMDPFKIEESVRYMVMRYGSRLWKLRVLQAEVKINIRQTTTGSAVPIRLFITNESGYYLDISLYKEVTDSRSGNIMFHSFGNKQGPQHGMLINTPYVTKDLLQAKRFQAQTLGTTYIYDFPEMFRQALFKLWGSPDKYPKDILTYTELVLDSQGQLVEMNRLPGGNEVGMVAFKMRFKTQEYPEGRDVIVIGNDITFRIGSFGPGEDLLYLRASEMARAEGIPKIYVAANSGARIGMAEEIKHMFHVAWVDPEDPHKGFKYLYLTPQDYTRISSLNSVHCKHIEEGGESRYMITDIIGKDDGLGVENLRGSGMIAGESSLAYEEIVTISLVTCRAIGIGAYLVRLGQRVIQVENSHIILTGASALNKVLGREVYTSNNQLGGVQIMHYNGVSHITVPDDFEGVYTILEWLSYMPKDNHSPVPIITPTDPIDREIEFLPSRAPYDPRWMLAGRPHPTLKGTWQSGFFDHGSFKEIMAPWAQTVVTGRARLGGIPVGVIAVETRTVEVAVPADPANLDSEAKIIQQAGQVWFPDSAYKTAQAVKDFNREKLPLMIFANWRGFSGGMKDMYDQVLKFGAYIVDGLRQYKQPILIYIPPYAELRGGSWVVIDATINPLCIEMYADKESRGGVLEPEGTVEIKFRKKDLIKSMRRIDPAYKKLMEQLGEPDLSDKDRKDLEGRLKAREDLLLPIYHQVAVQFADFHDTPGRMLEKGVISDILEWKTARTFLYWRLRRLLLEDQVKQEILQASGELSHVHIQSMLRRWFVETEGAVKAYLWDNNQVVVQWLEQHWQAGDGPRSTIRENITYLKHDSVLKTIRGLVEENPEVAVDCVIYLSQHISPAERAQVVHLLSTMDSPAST

IC50	Compound
987 nM	CC(=O)N[C@@H](C)c1ccc(O[C@@H]2CCN(c3ncnc(C4CC4)c3Cl)C2)cc1 [Example 9.2]
190 nM	CC(=O)N[C@@H](C)c1ccc(O[C@@H]2CCN(c3nc(NC4CCCC4)ncc3F)C2)cc1 [Example 8.10]
39 nM	CC(=O)N[C@@H](C)c1ccc(O[C@@H]2CCN(c3ncnc(OC4CCC4)c3Cl)C2)cc1 [Example 7.41]
595 nM	COC(C)(C)COc1ncnc(N2CC[C@@H](Oc3ccc([C@H](C)NC(C)=O)cc3)C2)c1F [Example 7.46]
80 nM	CC(=O)N[C@@H](C)c1ccc(O[C@@H]2CCN(c3ncnc(N4CCC(F)(F)C4)c3Cl)C2)cc1 [Example 8.114]
35 nM	CC(=O)N[C@@H](C)c1ccc(O[C@@H]2CCN(c3ncnc(OC4CCC4)c3F)C2)cc1 [Example 7.27]
641 nM	COC1CCN(c2nccc(N3CC[C@@H](Oc4ccc([C@H](C)NC(C)=O)cc4)C3)n2)CC1 [Example 8.229]
360 nM	COC1CCN(c2ncnc(N3CC[C@@H](Oc4ccc([C@H](C)NC(C)=O)cc4)C3)c2F)CC1 [Example 8.213]
50 nM	CC(=O)N[C@@H](C)c1ccc(O[C@@H]2CCN(c3ncnc(N4CC[C@H](C)C4)c3F)C2)cc1 [Example 8.293]
1350 nM	CC(=O)N[C@@H](C)c1ccc(O[C@@H]2CCN(c3nc(N4CCC(C)(O)CC4)ncc3F)C2)cc1 [Example 8.273]

The next lines start with the molecule.

Compound	IC50
CC(=O)N[C@@H](C)c1ccc(O[C@@H]2CCN(c3nc(N4CC(F)(F)C4)ncc3Cl)C2)cc1 [Example 8.289]	484 nM
CCC(C)Nc1ncnc(N2CC[C@@H](Oc3ccc([C@H](C)NC(C)=O)cc3)C2)c1Cl (some centres unmarked) [Example 8.314]	345 nM
CC(=O)N[C@@H](C)c1ccc(O[C@@H]2CCN(c3nc(N4CCC(C)C4)ncc3Cl)C2)cc1 (some centres unmarked) [Example 8.142]	138 nM
CC(=O)N[C@@H](C)c1ccc(O[C@@H]2CCN(c3nc(OCC4(C)CC4)ncc3F)C2)cc1 [Example 7.18]	565 nM
CC(=O)N[C@@H](C)c1ccc(O[C@@H]2CCN(c3ccnc(N(C)C4CCC4)n3)C2)cc1 [Example 8.253]	79 nM
CC(=O)N[C@@H](C)c1ccc(O[C@@H]2CCN(c3nc(N(C)CCO)ncc3Cl)C2)cc1 [Example 8.248]	1040 nM
CC(=O)N[C@@H](C)c1ccc(O[C@@H]2CCN(c3nc(N4CCC(F)(F)CC4)ncc3Cl)C2)cc1 [Example 8.187]	220 nM
CC(=O)N[C@@H](C)c1ccc(O[C@@H]2CCN(c3ncc(C4CCCC4)cn3)C2)cc1 [Example 6.18]	935 nM
CCN(C)c1ncnc(N2CC[C@@H](Oc3ccc([C@H](C)NC(C)=O)cc3)C2)c1Cl [Example 8.102]	88 nM
CC(=O)N[C@@H](C)c1ccc(O[C@@H]2CCN(c3ccnc(N(CCC#N)C4CC4)n3)C2)cc1 [Example 8.107]	522 nM
CC(=O)N[C@@H](C)c1ccc(O[C@@H]2CCN(c3nc(N4CCC(C)(C)C4)ncc3F)C2)cc1 [Example 8.194]	128 nM
CC(=O)N[C@@H](C)c1ccc(O[C@@H]2CCN(c3nc(NCC(F)F)ncc3F)C2)cc1 [Example 8.304]	510 nM
COCCN(C)c1ncc(F)c(N2CC[C@@H](Oc3ccc([C@H](C)NC(C)=O)cc3)C2)n1 [Example 8.66]	65 nM
CC(=O)N[C@@H](C)c1ccc(O[C@@H]2CCN(c3nccc(N4CCCC4)n3)C2)cc1 [Example 6.10]	929 nM
CC(=O)N[C@@H](C)c1ccc(O[C@@H]2CCN(c3nc(N(C)CC(C)O)ncc3F)C2)cc1 (some centres unmarked) [Example 8.239]	487 nM
CCC(=O)Nc1nc(C)c(C(=O)N[C@@H](C)c2ccc(O[C@@H]3CCN(c4ncc(OCC5CC5(F)F)cn4)C3)cc2)s1 (some centres unmarked) [Example 1.4]	101 nM
CC(=O)N[C@@H](C)c1ccc(O[C@@H]2CCN(c3nc(N(C)CC4CCOC4)ncc3Cl)C2)cc1 (some centres unmarked) [Example 8.54]	125 nM
CC(=O)N[C@@H](C)c1ccc(O[C@@H]2CCN(c3nc(N(C)CCC(C)(C)O)ncc3F)C2)cc1 [Example 8.32]	1070 nM
CC(=O)N[C@@H](C)c1ccc(O[C@@H]2CCN(c3ccnc(N(C)C(C)C)n3)C2)cc1 [Example 8.25]	294 nM
